Read-outs that look alike come from different tables or passages of the source.

The subject of assay [1] is hERβ. The following applies: cited from earlier work.
Assay [2] has as its system hERβ. The assay can be described thus: Relative binding affinity to hERβ (Kuiper et al.). Also on record: species or system human. The following applies: quotient of RBA to ERβ and ERα. From the text: In this case, it is assumed that ERβ predominates in the rat prostates over ERα, and ERα predominates in rat uteri over ERβ.
Assay [3] has as its system estrogen receptor preparations from rat prostates. The experiment in a line: Competitive 3H-estradiol binding, rat prostate cytosol estrogen receptor. Conditions: for Rat prost. ER(RBA): 3H-estradiol as ligand, rat prostate cytosol, estradiol = 100.
Assay [4] has as its system estrogen receptor preparations from rat uteri. The experiment in a line: Competitive 3H-estradiol binding, rat uterus cytosol estrogen receptor. The following applies: 3H-estradiol as ligand, estradiol = 100.
[5] abbreviates: relative binding affinity, estradiol = 100.

For `C[C@]12CCC(O)CC1=CC[C@@H]1[C@@H]2CC[C@]2(C)C(O)CC[C@@H]12` (stereo partly drawn) [5-Androstene-diol], the “hERβ RBA” value with hERβ [1] was 17. Besides, the ERβ/ERα in the assay on hERβ [2] came to 3. Moreover, the “Rat prost. ER(RBA)” value in assay [3] came out at 5. Further, the “prost. ER/uterus ER” value in assay [3] (ratio of the binding to prostate and uterus receptors) came out at 50. For the same compound, the “Rat uterus ER(RBA)” value in assay [4] is 0.1.

Estradiol: the “hERβ RBA” value in the assay on hERβ [1] (setting [5]) is given as 100. Further, the “Rat prost. ER(RBA)” value in assay [3] is reported as 100. In assay [4], the “Rat uterus ER(RBA)” value is 100.

Take `C[C@]12CC[C@@H]3c4ccc(O)cc4CC[C@H]3[C@@H]1C[C@@H](O)[C@@H]2O` [Estriol]: in the assay on hERβ [1] (setting [5]), the “hERβ RBA” value is listed as 21.

(Values after patent US20030171345A1 (priority 2001, published 2003).)
